The MRT inf is the average time that molecules of a dose stay in the body. What is called MRT last is the average time that molecules of a dose stay in the body. One may read the clearance as the volume of plasma or blood freed of the substance per unit of time. The low end stands for a low capacity for elimination, the high end for a high capacity for elimination. The half-life is how long it takes for the measured level to halve. Broadly, the solubility is the dissolved amount per volume that the medium holds. Low readings indicate a poorly soluble substance, high ones a readily soluble substance.

Consider seven molecules from patent publication US8598128B2, “Fructosylated puerarin, and preparation method and use thereof” (priority 2010, dated 2013).

The conditions of data set [1]: cited from earlier work; for water solubility compared with puerarin: literature.
In data set [2] the test system is human breast cancer cell strain MDA-MB-231. Description: MDA-MB-231 cell toxicity test (MTT). It is filed as cell-based. Particulars: 48 h; for OD value: MTT 490 nm. The method, then: MDA-MB-231 cells were cultured in an incubator at 37° C. with 5% CO2 saturated humidity in the RPMI-1640 complete culture medium containing inactivated fetal calf serum with volume fraction of 10%, 100 U penicillin and streptomycin. Take MDA-MB-231 cells in logarithmic phase (primary culture bottle) and discard the culture solution. […] Prepare the suspended solution of cells and adjust the cell concentration with appropriate amount of complete culture medium to 3×10^4/mL. Fed the cells into a tissue culture plate 96, with cell suspended liquid of 180 μL in each case, and put the culture plate into a cell incubator (37° C., 5% CO2) for conventional culture. When cells grew to 50%-70%, add drug liquid of different concentration. […] For DMSO solvent control group, add 20 μL of PBS containing […] and for the blank group, add 20 μL of PBS. For each drug concentration, 6 complex cases were provided. Put back the culture plate into the cell incubator, after 48 h, add 20 μL MTT (5 mg/mL) solution and continue to incubate it in the incubator for 4 h, then remove the supernatant and dry it with tissue, add 200 μL DMSO into each case and vibrate it in the rocker without light for 15 min, to allow the crystal to fully dissolve. Determine the light absorption at 490 nm with a fully automatic ELISA instrument, and calculate the average suppression rate, suppression rate (%)=(control group A490−test group A490)/control group A490), the experiment was repeated three times. Relevant analysis and Student t tests in Microsoft Excel 2003 were used, and data are presented in X±SD.

The subject of data set [3] is myocardio ischemia mice. Description: Heart rate in pituitrin acute myocardial ischemia model. Particulars: 50 mg/kg. It is filed as in vivo, Sprague-Dawley mice (SD mice). An excerpt: (§1) Embodiment 6: […] Pituitrin injection was purchased from Nanjing Xinbai Pharmaceutical Co., Ltd., normal saline injection from Nanjing Xiaoying Pharmaceutical Co., Ltd., and DMSO, PG, and anhydrous ethanol were of chromatographic class. […] The data were presented with, and tested with t. P<0.05 indicates substantial difference, P<0.01 indicates very substantial difference; and P<0.001 indicates extremely substantial difference.

The subject of data set [4] is human chronmyelogenors leukemia cell strain K562. In words: K562 cell toxicity test (MTT). It is filed as cell-based. Particulars: 48 h; for OD value: MTT 490 nm. Here is the method:
K-562 cells were cultured in an incubator at 37° C. with 5% CO2 saturated humidity in the RPMI-1640 complete culture medium containing inactivated calf serum with volume fraction of 10%, 100 U penicillin and streptomycin. […] For each drug concentration, 6 complex cases were provided. Put back the culture plate into the cell incubator, after 48 h, add 20 μL MTT (5 mg/mL) solution and continue to incubate it in the incubator for 4 h, then each case was added with triple liquid 100 μL, put it overnight to allow the crystal to fully dissolve. Vibrate it with oscillator for 20 min and determine the light absorption at 490 nm with a fully automatic ELISA instrument, and calculate the average suppression rate, suppression rate (%)=(control group A490−test group A490)/control group A490), the experiment was repeated three times. Relevant analysis and Student t tests in Microsoft Excel 2003 were used, and data are presented in X±SD.

A short description of another data set: in vivo. Particulars: in vivo, 50 mg/kg. The method, then: Embodiment 5: Metabokinetic Experiment of monofructosyl-β(2,6)-Puerarin in Blood
In HPLC analysis, DIONEX was used, with chromatographic column as Discovery HS C18 ([…], 5 μm), feeding specimen volume 20 μL, column temperature 30° C., the detector was UVD170U, with detection wavelength of 254 nm, flowing phase: A, water, B, chromatographic class methanol, A:B=80:20, at flow rate of 1 mL/min.
Sprague-Dawley mice (SD mice), with weight of 180-220 g, male and female in half, provided by Medical Experiment Center of Nantong University, with production permit No.: SCXK (Su) 20080010.
SD mice were randomly divided into 2 groups of 5 each, fasting for 12 hours before experiment. Puerarin and monofructosyl-β(2,6)-puerarin were respectively dissolved in 20% 1,2-PG normal saline, and injected into mouse caudal vein at a dosage of 50 mg/kg. After injection, at t=0 min, 4 min, 7 min, 17 min, 40 min, 60 min, 120 min and 180 min, 0.5 mL of blood was taken from orbit and put into centrifugal tubes treated with liquaemin, then it was immediately separated by centrifuging at 3000 rpm for 15 min, to separate out plasma for analysis.
Plasma of 100 μL was precisely taken and put into test tube, and 400 μL of methanol sedimented protein was added, they were mixed on vortex mixer for 5 min, then centrifuged at 10000 rpm for 10 min, and the supernatant was used for HPLC analysis.
The plasma concentration of the puerarin and monofructosyl-β(2,6)-puerarin specimens prepared as per 3.2 was obtained by calculation with external reference method. The data obtained were analyzed using pharmacokinetics statistic software.

Data set [5] concerns myocardio ischemia mice. Description: T wave amplitude variation in pituitrin acute myocardial ischemia model. It is filed as in vivo, Sprague-Dawley mice (SD mice). Particulars: 50 mg/kg.
Excerpt: as §1

The next data set can be described thus: physchem. Particulars: 25° C.
The conditions of data set [6]: literature; cited from earlier work.
The test system of data set [7] is aorta vascular smooth muscle. Particulars: compared with puerarin, literature; cited from earlier work.
Data set [8] is described as follows: Solubility determination at 25° C.
[9] abbreviates: both, Sprague-Dawley, mouse, iv.

Values after ≈ are worked out from the molar mass of the structure shown.

Take `O=c1c(-c2ccc(O)cc2)coc2c([C@@H]3O[C@H](CO[C@H]4O[C@H](CO)[C@@H](O[C@H]5O[C@H](CO)[C@@H](O)[C@H](O)[C@H]5O)[C@H](O)[C@H]4O)[C@@H](O)[C@H](O)[C@H]3O)c(O)ccc12` [maltosyl-α-(1,6)-puerarin]: the “water solubility compared with puerarin” value in data set [1] is recorded as 168 times.

For the molecule `O=c1c(-c2ccc(O)cc2)coc2c([C@@H]3O[C@H](CO)[C@@H](O)[C@H](O)[C@H]3O)c(O)ccc12` [Puerarin, 7,4′-dyhydroxy-8-β-D-glucosyl isoflavone], the Average suppression rate in data set [2] (0.5 μmol/L) was determined as 10.68%; in data set [2] (1 μmol/L), 11.67%; in data set [2] (5 μmol/L) it was 12.43%; in data set [2] (10 μmol/L), 13.77%; in data set [2] (50 μmol/L), 24.92%; in data set [2] (100 μmol/L) it was 33.06%. Besides, the Average suppression rate was 47.47% in data set [2] (150 μmol/L); 61.91% in [2] (200 μmol/L); 10.65% in data set [4] (1 μmol/L); 7.52% in data set [4] (5 μmol/L); 9.46% in [4] (10 μmol/L); 10.68% in data set [4] (20 μmol/L). Also, the Average suppression rate in data set [4] (50 μmol/L) is given as 22.73%; in data set [4] (100 μmol/L), 30.89%; in [4] (150 μmol/L), 36.65%; in data set [4] (200 μmol/L), 54.19%. Also, the OD value was determined as 0.632 ± 0.056 in data set [2] (0.5 μmol/L); 0.624 ± 0.053 in [2] (1 μmol/L); 0.619 ± 0.090 in [2] (5 μmol/L); 0.610 ± 0.039 in data set [2] (10 μmol/L); 0.531 ± 0.066 in data set [2] (50 μmol/L); 0.473 ± 0.034 in data set [2] (100 μmol/L). In addition, the OD value in [2] (150 μmol/L) is reported as 0.372 ± 0.037; in data set [2] (200 μmol/L), 0.619 ± 0.042; in data set [4] (1 μmol/L), 0.917 ± 0.031; in [4] (5 μmol/L) it was 0.949 ± 0.023; in data set [4] (10 μmol/L), 0.929 ± 0.030; in data set [4] (20 μmol/L), 0.916 ± 0.056. For the same molecule, the OD value in data set [4] (50 μmol/L) was 0.793 ± 0.083; in [4] (100 μmol/L) it was 0.709 ± 0.038; in data set [4] (150 μmol/L), 0.650 ± 0.039; in data set [4] (200 μmol/L), 0.470 ± 0.027. In addition, the Heart rate with myocardio ischemia mice [3] (5 s) was 512 ± 36 time · min^−1; in the data set with myocardio ischemia mice [3] (10 s) it was 469 ± 32 time · min^−1; in the data set on myocardio ischemia mice [3] (15 s), 437 ± 63 time · min^−1; in the data set on myocardio ischemia mice [3] (30 s), 411 ± 69 time · min^−1; in the data set with myocardio ischemia mice [3] (1 min), 379 ± 85 time · min^−1; in the data set on myocardio ischemia mice [3] (2 min), 379 ± 72 time · min^−1. Also, the Heart rate in the data set on myocardio ischemia mice [3] (5 min) turned out to be 384 ± 53 time · min^−1; in the data set with myocardio ischemia mice [3] (10 min) it was 434 ± 51 time · min^−1; with myocardio ischemia mice [3] (Normal) it was 484 ± 33 time · min^−1. This molecule showed an MRT inf in the data set “in vivo” (setting [9]) of 20.6 min. The molecule also showed an MRT last in the data set “in vivo” (setting [9]) of 19.7 min. Besides, in “in vivo” (setting [9]), the clearance amounted to 13 ± 3 mL/min/kg. The same molecule gave a half-life in the data set “in vivo” (setting [9]) of 17 ± 3.09 min. Moreover, the “AUC (0-t)” value in “in vivo” worked out at 4096.192 ± 973.839 mg/Lxmin. The “T wave amplitude variation” value with myocardio ischemia mice [5] (15 s after Pit) was 0.082 ± 0.052 mv; with myocardio ischemia mice [5] (30 s after Pit) it was 0.114 ± 0.096 mv; in the data set with myocardio ischemia mice [5] (1 min after Pit) it was 0.118 ± 0.086 mv; in the data set on myocardio ischemia mice [5] (2 min after Pit), 0.132 ± 0.096 mv; in the data set on myocardio ischemia mice [5] (5 min after Pit), 0.118 ± 0.075 mv; in the data set with myocardio ischemia mice [5] (10 min after Pit), 0.074 ± 0.061 mv. The same molecule came in with a solubility in the data set “physchem” of 5200 µg/mL (≈ 12.5 mM). Further, the solubility in water in data set [1] (background statement) is 6.24 g/L (≈ 15 mM).

For `O=c1c(-c2ccc(O)cc2)coc2c(C3OC(CO)C(O)C(O)C3O)c(OC3OC(COC4OC(CO)C(O)C(O)C4O)C(O)C(O)C3O)ccc12` (stereo not drawn) [7-O-isomaltoside puerarin], the “water solubility compared with puerarin” value in data set [1] is on record as 100 times.

In the case of `O=c1c(-c2ccc(O)cc2)coc2c([C@@H]3O[C@H](CO)[C@@H](O)[C@H](O)[C@H]3O)c(O[C@@H]3O[C@H](CO)[C@@H](O)[C@H](O)[C@H]3O)ccc12` [7-O-glucoside puerarin], in data set [6], the “mean retaining time (MRT) relative to puerarin” value is 2.8 times and the “plasma half-life (t1/2) relative to puerarin” value was 2 times. For the same molecule, the “water solubility compared with puerarin” value in data set [1] is listed as 18 times.

On to “semi-emulsified glycosyl-α-(1,4)-puerarin”, for which the vasodilatation effect entry in data set [7] is on record as “could produce better vasodilatation effect than puerarin”.

On to `O=c1c(-c2ccc(O)cc2)coc2c([C@@H]3O[C@H](CO[C@]4(CO)O[C@H](CO[C@]5(CO)O[C@H](CO)[C@@H](O)[C@@H]5O)[C@@H](O)[C@@H]4O)[C@@H](O)[C@H](O)[C@H]3O)c(O)ccc12` [bifructosyl-β(2,6)-puerarin], for which the solubility in [8] was determined as 280.8 g/L (≈ 379 mM). Further, the “solubility relative to puerarin” value in data set [8] (puerarin 5.2 g/L) is given as 54 times.

Regarding `O=c1c(-c2ccc(O)cc2)coc2c([C@@H]3O[C@H](CO[C@H]4O[C@H](CO)[C@@H](O)[C@H](O)[C@H]4O)[C@@H](O)[C@H](O)[C@H]3O)c(O)ccc12` [glucosyl-α-(1, 6)-puerarin], the “water solubility compared with puerarin” value in data set [1] is recorded as 14 times.
